US4835162A (priority 1987, dated 1989)
Entries after “also recorded” stand apart in the source; their conditions may differ. Like-named read-outs stand apart in the source and are kept apart here.

How the values were obtained:
rats [1] = settings: rat, in vivo
rats [2] = settings: rat, in vivo; remark: listed apart in the source
rats [3] = settings: rat, in vivo, ip, 3 mg/kg
rats [4] = settings: rat, in vivo, iv
rats [5] = settings: rat, in vivo; remark: listed apart in the source
rats [6] = tested on: rats; design: species or system Sprague-Dawley male rats; Blockade of (nicotine-induced prostration) EC50: unit not given here; settings: rat, in vivo
[7] = biological target: nicotinic receptors (rat brain membranes); format: binding; settings: read-out: 3H-Nicotine Binding IC50
[8] = biological target: nicotinic receptors (rat brain membranes); settings: read-out: 3H-MCC Binding IC50
rats [9] = assay: animal or person; settings: Rattus norvegicus, iv, read-out: Antagonistic dose needed to completely block elevation in systolic blood pressure
[10] = biological target: nicotinic receptors (rat brain membranes); format: binding; settings: pH 7; read-out: [3H]-MCC IC50
[11] = biological target: nicotinic receptors (rat brain membranes); format: binding; settings: for IC50: pH 7, read-out: [3H]-nicotine IC50

CN1CCCC1c1cccnc1 (single isomer, unassigned; (-)) [(-)-nicotine]
Prostration EC50 (rats [1]): 2 | agonist or inactive on prostration, in words (rats [1]): agonists | duration of prostration (rats [1]): 2 to 4 min | onset of prostration response (rats [1]): 1 to 3 s | respiratory effect, in words (rats [1]): deep diaphragmatic breathing and a decreased respiratory rate | dose producing effect: prostration, in words (rats [2]): prostration of all four limbs | times more effective than (+)-enantiomer of nicotine (prostration) (rats [2]): 20 times | times more potent than N'-ethyl analogue (prostration) (rats [2]): 10 times | times more potent than N'-propyl analogue (prostration) (rats [2]): 40 times | times more potent than nicotonium analogue (prostration) (rats [2]): 50 times | volume of nicotine solution required to produce prostration (rats [2]): 1-2 μl of a 10^-3 M solution | Mortality (rats [3]): 8/10 | increase in systolic blood pressure by nicotine (rats [4]): 25% | signs after nicotine, in words (rats [5]): prostration followed by tremors, fasciculations, cyanosis and labored breathing, and myoclonic seizures | Seizures (rats [5]; ip, 1.5 mg/kg): 10/10

CN(C)c1cccnc1 [3-dimethylaminopyridine]
agonist or inactive on prostration, in words (rats [1]): agonists

Nc1c2c(nc3ccccc13)CCCC2 [9-aminotetrahydroacridine, reference compound]
Blockade of (nicotine-induced prostration) EC50 (rats [6]): 200

CC(=O)OCCN(C)C [DMAE acetate]
Prostration EC50 (rats [1]): > 1000 | IC50 ([7]; pH 7.5): 50 µM | IC50 ([8]; pH 7.5): 50 µM

CN(C)CCOC(=O)c1ccccc1 [DMAE benzoate, dimethylaminoethyl benzoate]
% Antagonism (seizures) (rats [5]): 45% | Seizures (rats [5]): 5/9 | ED100 (rats [9]): 10 ± 25 mg/kg | Blockade of (nicotine-induced prostration) EC50 (rats [6]): 100

CN(C)CCOC(N)=O [DMAE carbamate]
IC50 [10]: 10000 nM | Prostration EC50 (rats [1]): 400 | behavioral effect, in words (rats [1]): only a similar effect | IC50 ([7]; pH 7.5): 10 µM | IC50 [11]: 10000 nM | IC50 ([8]; pH 7.5): 10 µM

CN(C)CCOC(=O)C1CCCCC1 [DMAE cyclohexylcarboxylate, dimethylaminoethyl cyclohexylcarboxylate]
% Antagonism (seizures) (rats [5]): 50% | Seizures (rats [5]): 4/8 | seizures, in words (rats [5]): about half of the rats exhibited seizures | IC50 [7]: 2 µM | Blockade of (nicotine-induced prostration) EC50 (rats [6]): 100 | IC50 [8]: 4 µM

CNC(=O)OCCN(C)C [DMAE methylcarbamate, dimethylaminoethylmethylcarbamate]
IC50 [10]: 800 nM | Prostration EC50 (rats [1]): 300 | behavioral effect, in words (rats [1]): moderate weakness in the hindlimbs and head | IC50 ([7]; pH 7.5): 0.5 µM | IC50 [11]: 500 nM | IC50 ([8]; pH 7.5): 0.8 µM

CN(C)CCOC(=O)c1cccnc1 [DMAE nicotinate]
IC50 [7]: 0.2 µM | Blockade of (nicotine-induced prostration) EC50 (rats [6]): 50 | blockade of nicotine-induced prostration / antagonism, in words (rats [6]): next in effectiveness and of comparable activity; also recorded: antagonistic to the nicotine-induced prostration | IC50 [8]: 0.2 µM

CN(C)CCOC(=O)Nc1ccccc1 [DMAE phenylcarbamate]
IC50 [7]: 100 µM | IC50 [8]: 100 µM

CN(C)CCOC(=S)Nc1ccccc1 [DMAE phenylthiocarbamate]
IC50 [7]: 70 µM | IC50 [8]: 20 µM

CN(C)CCOC(=O)CCC(=O)OCCN(C)C [DMAE succinate]
Prostration EC50 (rats [1]): 1000 | IC50 ([7]; pH 7.5): 50 µM | IC50 ([8]; pH 7.5): 60 µM

CNC(=O)OCCCN(C)C [DMAP methylcarbamate]
Prostration EC50 (rats [1]): 100 | IC50 ([7]; pH 7.5): 0.2 µM | IC50 ([8]; pH 7.5): 0.05 µM

CCN1CCCC1c1cccnc1 (stereo not drawn) [N'--ethyl nornicotine, reference compound]
IC50 [10]: 100 nM | Prostration EC50 (rats [1]): 20 | IC50 ([7]; pH 7.5): 0.03 µM | decrease in affinity relative to nicotine [11]: 3 fold | IC50 [11]: 30 nM | IC50 ([8]; pH 7.5): 0.1 µM

CCCN1CCCC1c1cccnc1 (stereo not drawn) [N'--propyl nornicotine, reference compound]
IC50 [10]: 1000 nM | Prostration EC50 (rats [1]): 80 | IC50 ([7]; pH 7.5): 0.6 µM | decrease in affinity relative to nicotine [11]: 200 fold | IC50 [11]: 600 nM | IC50 ([8]; pH 7.5): 1 µM

CNC(=O)OC1CCN(Cc2ccccc2)CC1 [N--benzyl-4-piperdyl methylcarbamate]
IC50 [7]: > 100 µM | IC50 [8]: > 100 µM

CN1CCCC(OC(=O)c2ccccc2)C1 (stereo not drawn) [N--methyl-3-piperdyl benzoate]
IC50 [7]: 30 µM | Blockade of (nicotine-induced prostration) EC50 (rats [6]): 300 | IC50 [8]: 20 µM

COc1ccc(CC2c3cc(OC)c(OC)cc3CCN2C)cc1OC (stereo not drawn) [N--methyltetrahydro papavarine, reference compound]
IC50 [7]: 70 µM | IC50 [8]: 80 µM
